PMC9120017, “Inhibition mechanism of the chloride channel TMEM16A by the pore blocker 1PBC” (Nature Communications, 2022)
Like-named read-outs stand apart in the source and are kept apart here.

Molecular target: T1, mouse TMEM16A mutant S517A (Mus musculus, UniProt Q8BHY3, S517A)
T1 construct: expressed in transfected cells; host or cells: HEK293T
T1 sequence (Q8BHY3 1-960 S517A): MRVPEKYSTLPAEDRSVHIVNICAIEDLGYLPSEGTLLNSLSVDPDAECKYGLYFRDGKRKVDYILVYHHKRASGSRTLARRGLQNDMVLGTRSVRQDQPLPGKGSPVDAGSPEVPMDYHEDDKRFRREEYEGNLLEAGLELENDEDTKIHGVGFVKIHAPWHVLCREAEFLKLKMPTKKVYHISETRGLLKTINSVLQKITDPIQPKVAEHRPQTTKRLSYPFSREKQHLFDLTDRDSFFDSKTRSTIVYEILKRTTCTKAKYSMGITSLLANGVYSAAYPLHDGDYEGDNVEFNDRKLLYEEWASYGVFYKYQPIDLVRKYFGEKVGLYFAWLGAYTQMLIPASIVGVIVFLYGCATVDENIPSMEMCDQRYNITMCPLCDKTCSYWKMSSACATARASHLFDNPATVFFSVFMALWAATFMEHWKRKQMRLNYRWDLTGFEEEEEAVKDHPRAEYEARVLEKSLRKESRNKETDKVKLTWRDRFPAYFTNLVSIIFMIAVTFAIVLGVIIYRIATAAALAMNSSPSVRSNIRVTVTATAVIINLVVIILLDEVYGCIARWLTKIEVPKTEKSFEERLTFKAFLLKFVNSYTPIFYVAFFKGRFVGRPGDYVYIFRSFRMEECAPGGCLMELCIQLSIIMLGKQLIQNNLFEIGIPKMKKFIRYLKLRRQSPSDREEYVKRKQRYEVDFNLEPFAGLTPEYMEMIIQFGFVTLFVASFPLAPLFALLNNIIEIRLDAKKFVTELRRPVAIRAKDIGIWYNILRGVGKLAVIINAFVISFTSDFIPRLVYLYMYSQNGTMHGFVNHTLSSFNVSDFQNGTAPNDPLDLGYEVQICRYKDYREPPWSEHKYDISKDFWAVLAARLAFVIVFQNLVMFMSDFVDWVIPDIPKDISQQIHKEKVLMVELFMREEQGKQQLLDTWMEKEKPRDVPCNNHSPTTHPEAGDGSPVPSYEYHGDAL
Assay: Inside-out patch recording of 1PBC block, mutant S517A
Type: cell-based
Settings: for remaining activity at 1 µM: 1PBC 1; for remaining activity at 1 µM / remaining activity at 3 µM / remaining activity at 10 µM / remaining activity at 30 µM / remaining activity at 100 µM: read-out: fraction of unblocked current; for remaining activity at 3 µM: 1PBC 3; for remaining activity at 10 µM: 1PBC 10; for remaining activity at 30 µM: 1PBC 30; for remaining activity at 100 µM: 1PBC 100
Method: HEK293T cells (ATCC CRL-1573) were maintained in Dulbecco’s modified Eagle’s medium (DMEM; Sigma-Aldrich) supplemented with 10 U ml^−1 penicillin, 0.1 mg ml^−1 streptomycin (Sigma-Aldrich), 2 mM L-glutamine (Sigma-Aldrich), and 10% FBS (Sigma-Aldrich) in a humidified atmosphere containing 5% CO2 at 37 °C. HEK293S GnTI^− cells (ATCC CRL-3022) were maintained in HyClone HyCell TransFx-H medium (GE Healthcare) supplemented with 10 U ml^−1 penicillin, 0.1 mg ml^−1 streptomycin, 4 mM L-glutamine, 0.15% poloxamer 188 (Sigma-Aldrich), and 1% FBS in an atmosphere containing 5% CO2 at 185 rpm at 37 °C. The ac splice variant of mouse TMEM16A (UniProt ID: Q8BHY3), mouse TMEM16B (UniProt ID: Q8CFW1), or mouse TMEM16F (UniProt ID: Q6P9J9) bearing a 3C cleavage site, a Venus YFP, a Myc tag, and a Streptavidin-binding peptide (SBP) downstream of the open reading frame in a modified pcDNA3.1 vector (Invitrogen) were used as described previously[21],[31]. Mutations were introduced using a modified QuikChange method[58] and were verified by sequencing.
HEK293T cells were transfected with 3–4 μg DNA per 6 cm Petri dish using the calcium phosphate co-precipitation method and were used within 24–96 h after transfection. Recordings were performed on inside-out patches excised from HEK293T cells expressing the construct of interest. Patch pipettes were pulled from borosilicate glass capillaries (O.D. 1.5 mm, I.D. 0.86 mm, Sutter Instrument) and were fire-polished with a microforge (Narishige) before use. Pipette resistance was typically 3–8 MΩ when filled with the recording solutions detailed below. Seal resistance was typically 4 GΩ or higher. Voltage-clamp recordings were made using Axopatch 200B, Digidata 1550, and Clampex 10.7 (Molecular Devices). Analog signals were filtered with the in-built 4-pole Bessel filter at 10 kHz and were digitized at 20 kHz. Solution exchange was achieved using a gravity-fed system through a theta glass pipette mounted on an ultra-fast piezo-driven stepper (Siskiyou). […] All recordings were performed at 20 °C.
A symmetrical ionic condition was used throughout. Stock solution with Ca^2+-EGTA contained 150 mM NaCl, 5.99 mM Ca(OH)2, 5 mM EGTA, and 10 mM HEPES at pH 7.40. Stock solution with EGTA contained 150 mM NaCl, 5 mM EGTA, and 10 mM HEPES at pH 7.40. Free Ca^2+ concentrations were adjusted by mixing the stock solutions at the required ratios calculated using the WEBMAXC program (http://web.stanford.edu/~cpatton/webmaxcS.htm). Patch pipettes were filled with the stock solution with Ca^2+-EGTA, which has a free Ca^2+ concentration of 1 mM. 1PBC (ChemBridge) stock was reconstituted in anhydrous DMSO (Sigma-Aldrich) at 100 mM and stored at −20 °C. Working solutions with 1PBC were prepared by serial dilution. Unless otherwise stated, experiments were performed at a saturating Ca^2+ concentration as shown in Supplementary Table 1 and the primary data were corrected for current rundown as described previously[21],[25].
Concentration-response relations, obtained from the ratio of the I-V plots before and after the application of the blocker, were fitted to the Hill equation,1 I/Imax=1/1+IC50/[blocker]^h where I/Imax is the normalized current responses, IC50 defines the concentration at which inhibition is at its half-maximum, and h is the Hill coefficient.

IC50 (0 mV, 2 µM Ca2+): 4.87 µM | remaining activity at 1 µM (0 mV): 80.6% | remaining activity at 1 µM (20 mV): 76.4% | remaining activity at 1 µM (40 mV): 72.2% | remaining activity at 1 µM (60 mV): 68.1% | remaining activity at 1 µM (80 mV): 65.8% | remaining activity at 1 µM (100 mV): 66.4% | remaining activity at 1 µM (120 mV): 68.4% | remaining activity at 1 µM (140 mV): 72% | remaining activity at 1 µM (-20 mV): 84.8% | remaining activity at 1 µM (-40 mV): 89.1% | remaining activity at 1 µM (-60 mV): 92.3% | remaining activity at 1 µM (-80 mV): 93.4% | remaining activity at 1 µM (-100 mV): 95% | remaining activity at 1 µM (-120 mV): 95.3% | remaining activity at 1 µM (-140 mV): 96.6% | remaining activity at 3 µM (0 mV): 62.1% | remaining activity at 3 µM (20 mV): 56.5% | remaining activity at 3 µM (40 mV): 50.9% | remaining activity at 3 µM (60 mV): 46.8% | remaining activity at 3 µM (80 mV): 43.5% | remaining activity at 3 µM (100 mV): 42.4% | remaining activity at 3 µM (120 mV): 44.1% | remaining activity at 3 µM (140 mV): 49.1% | remaining activity at 3 µM (-20 mV): 67.7% | remaining activity at 3 µM (-40 mV): 73.3% | remaining activity at 3 µM (-60 mV): 77.2% | remaining activity at 3 µM (-80 mV): 82.9% | remaining activity at 3 µM (-100 mV): 86.4% | remaining activity at 3 µM (-120 mV): 88.8% | remaining activity at 3 µM (-140 mV): 90.8% | remaining activity at 10 µM (0 mV): 33.3% | remaining activity at 10 µM (20 mV): 28.2% | remaining activity at 10 µM (40 mV): 24.2% | remaining activity at 10 µM (60 mV): 21.4% | remaining activity at 10 µM (80 mV): 19.4% | remaining activity at 10 µM (100 mV): 17.8% | remaining activity at 10 µM (120 mV): 18.2% | remaining activity at 10 µM (140 mV): 20.6% | remaining activity at 10 µM (-20 mV): 38.5% | remaining activity at 10 µM (-40 mV): 44.6% | remaining activity at 10 µM (-60 mV): 50% | remaining activity at 10 µM (-80 mV): 54.7% | remaining activity at 10 µM (-100 mV): 59.2% | remaining activity at 10 µM (-120 mV): 64.2% | remaining activity at 10 µM (-140 mV): 67.7% | remaining activity at 30 µM (0 mV): 14.7% | remaining activity at 30 µM (20 mV): 12% | remaining activity at 30 µM (40 mV): 10.1% | remaining activity at 30 µM (60 mV): 9.12% | remaining activity at 30 µM (80 mV): 8.68% | remaining activity at 30 µM (100 mV): 8.48% | remaining activity at 30 µM (120 mV): 8.95% | remaining activity at 30 µM (140 mV): 10.1% | remaining activity at 30 µM (-20 mV): 17.4% | remaining activity at 30 µM (-40 mV): 20.4% | remaining activity at 30 µM (-60 mV): 25.6% | remaining activity at 30 µM (-80 mV): 29.2% | remaining activity at 30 µM (-100 mV): 33.1% | remaining activity at 30 µM (-120 mV): 36.2% | remaining activity at 30 µM (-140 mV): 39.2% | remaining activity at 100 µM (0 mV): 6.16% | remaining activity at 100 µM (20 mV): 4.78% | remaining activity at 100 µM (40 mV): 4.43% | remaining activity at 100 µM (60 mV): 4.02% | remaining activity at 100 µM (80 mV): 3.86% | remaining activity at 100 µM (100 mV): 3.89% | remaining activity at 100 µM (120 mV): 3.95% | remaining activity at 100 µM (140 mV): 4.21% | remaining activity at 100 µM (-20 mV): 7.53% | remaining activity at 100 µM (-40 mV): 8.84% | remaining activity at 100 µM (-60 mV): 10.3% | remaining activity at 100 µM (-80 mV): 12.6% | remaining activity at 100 µM (-100 mV): 14.7% | remaining activity at 100 µM (-120 mV): 17.1% | remaining activity at 100 µM (-140 mV): 19.8% | IC50 (20 mV, 2 µM Ca2+): 3.78 µM | IC50 (40 mV, 2 µM Ca2+): 3.01 µM | IC50 (60 mV, 2 µM Ca2+): 2.51 µM | log-fold IC50 (change of mutant vs WT) (80 mV): 0.0426 | IC50 (80 mV, 2 µM Ca2+): 2.2 µM | IC50 (100 mV, 2 µM Ca2+): 2.14 µM | IC50 (120 mV, 2 µM Ca2+): 2.29 µM | IC50 (140 mV, 2 µM Ca2+): 2.76 µM | IC50 (-20 mV, 2 µM Ca2+): 6.24 µM | IC50 (-40 mV, 2 µM Ca2+): 8.08 µM | IC50 (-60 mV, 2 µM Ca2+): 10.3 µM | IC50 (-80 mV, 2 µM Ca2+): 12.8 µM | IC50 (-100 mV, 2 µM Ca2+): 15.5 µM | IC50 (-120 mV, 2 µM Ca2+): 18.4 µM | IC50 (-140 mV, 2 µM Ca2+): 21.4 µM | IC50 (S517A, V 0 mV): 4.87 µM | IC50 (S517A, V 20 mV): 3.78 µM | IC50 (S517A, V 40 mV): 3.01 µM | IC50 (S517A, V 60 mV): 2.51 µM | IC50 (S517A, V 80 mV): 2.2 µM | IC50 (S517A, V 100 mV): 2.14 µM | IC50 (S517A, V 120 mV): 2.29 µM | IC50 (S517A, V 140 mV): 2.76 µM | IC50 (S517A, V -20 mV): 6.24 µM | IC50 (S517A, V -40 mV): 8.08 µM | IC50 (S517A, V -60 mV): 10.3 µM | IC50 (S517A, V -80 mV): 12.8 µM | IC50 (S517A, V -100 mV): 15.5 µM | IC50 (S517A, V -120 mV): 18.4 µM | IC50 (S517A, V -140 mV): 21.4 µM
SMILES: N#Cc1c(C(F)(F)F)cc(O)n2c1nc1ccccc12 [1PBC]
